Measurements as given in patent publication US20100249093A1, “Substituted Heteroarylpiperidine Derivatives As Melanocortin-4 Receptor Modulators” (SANTHERA PHARMACEUTICALS (SCHWEIZ) AG, priority 2007, published 2010).

Legend:
[1] = molecular target: T1, human melanocortin-4 receptor (MC-4R) (Homo sapiens, UniProt P32245); assay: Functional assay: agonistic activity, cAMP production in membrane preparations compared with NDP-alpha-MSH, fluorescence polarization; type: biochemical; details: for Emax: cAMP produced compared to stimulation with NDP-alpha-MSH, read-out: % activation functional assay; for EC50: cAMP production, membrane preparations from HEK293 cells expressing human MC-4R, read-out: hMC-4R functional assay EC50
T1 construct: expressed in transfected cells; host or cells: HEK293

[2] = molecular target: T1, human melanocortin-4 receptor (MC-4R); assay: Membrane binding assay: competition with fluorescence labeled NDP-alpha-MSH, fluorescence polarization; details: HEK293 cell membrane preparations expressing human MC-4R, read-out: hMC-4R binding assay IC50

T1 sequence (P32245 whole entry): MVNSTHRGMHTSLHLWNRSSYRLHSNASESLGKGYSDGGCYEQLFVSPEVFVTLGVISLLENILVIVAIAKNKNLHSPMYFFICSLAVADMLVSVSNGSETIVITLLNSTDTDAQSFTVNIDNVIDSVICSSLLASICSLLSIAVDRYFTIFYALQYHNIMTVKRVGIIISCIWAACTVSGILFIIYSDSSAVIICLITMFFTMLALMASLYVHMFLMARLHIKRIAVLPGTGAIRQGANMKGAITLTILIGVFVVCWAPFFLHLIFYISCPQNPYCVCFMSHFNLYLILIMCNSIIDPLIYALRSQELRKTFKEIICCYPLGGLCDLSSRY

SMILES | Emax [1] | IC50 [2] | EC50 [1]
C[C@H](COc1cccnc1C1CCN(C(=O)[C@@H](Cc2ccc(Cl)cc2Cl)NC(=O)N2CCCC2)CC1)N(C)C [Example 25] | 0% | ≤ 100 nM | –
O=C(N[C@H](Cc1ccc(Cl)cc1Cl)C(=O)N1CCC(c2ncccc2O[C@H]2CN3CCC2CC3)CC1)N1CCCC1 [Example 26] | 0% | 100 to 1000 nM | –
CC[C@H](COc1cc(C)cnc1C1CCN(C(=O)[C@@H](Cc2ccc(Cl)cc2Cl)NC(=O)N2CCCC2)CC1)N(C)C [Example 27] | 0% | ≤ 100 nM | –
CN1CCN(Cc2cccnc2C2CCN(C(=O)[C@@H](Cc3ccc(Cl)cc3Cl)NC(=O)N3CCCC3)CC2)CC1 [Example 28] | 0% | 100 to 1000 nM | –
O=C(N[C@H](Cc1ccc(Cl)cc1Cl)C(=O)N1CCC(c2ncccc2OC2CN3CCC2CC3)CC1)N1CCCC1 (some centres unmarked) [Example 29] | 0% | 100 to 1000 nM | –
CC(C)[C@H](COc1cccnc1C1CCN(C(=O)[C@@H](Cc2ccc(Cl)cc2Cl)NC(=O)N2CCCC2)CC1)N(C)C [Example 30] | -8% | ≤ 100 nM | –
CC[C@@H](COc1cccnc1C1CCN(C(=O)[C@@H](Cc2ccc(Cl)cc2Cl)NC(=O)N2CCCC2)CC1)N1CCCC1 [Example 31] | -3% | ≤ 100 nM | –
CC[C@@H](CN(C)C)Oc1cccnc1C1CCN(C(=O)[C@@H](Cc2ccc(Cl)cc2Cl)NC(=O)N2CCCC2)CC1 [Example 32] | 36% | ≤ 100 nM | > 1000 nM
CC[C@@H](COc1cccnc1C1CCN(C(=O)[C@@H](Cc2ccc(Cl)cc2Cl)NC(=O)N2CCCC2)CC1)N(C)C [Example 33] | 0% | 100 to 1000 nM | –
CC[C@H](CN(C)C)Oc1cccnc1C1CCN(C(=O)[C@@H](Cc2ccc(Cl)cc2Cl)NC(=O)N2CCCC2)CC1 [Example 34] | -3% | > 1000 nM | –
CC[C@H](COc1c(C)ccnc1C1CCN(C(=O)[C@@H](Cc2ccc(Cl)cc2Cl)NC(=O)N2CCCC2)CC1)N(C)C [Example 35] | 7% | 100 to 1000 nM | –
CC[C@H](COc1cc(OC)cnc1C1CCN(C(=O)[C@@H](Cc2ccc(Cl)cc2Cl)NC(=O)N2CCCC2)CC1)N(C)C [Example 36] | 8% | ≤ 100 nM | –
CN1CCN(CCOc2cccnc2C2CCN(C(=O)[C@@H](Cc3ccc(Cl)cc3Cl)NC(=O)N3CCCC3)CC2)CC1 [Example 37] | -2% | 100 to 1000 nM | –
CN1CCC(Oc2cccnc2C2CCN(C(=O)[C@@H](Cc3ccc(Cl)cc3Cl)NC(=O)N3CCCC3)CC2)CC1 [Example 38] | -5% | 100 to 1000 nM | –
CN1CCN(Cc2cc(Cl)cnc2C2CCN(C(=O)[C@@H](Cc3ccc(Cl)cc3Cl)NC(=O)N3CCCC3)CC2)CC1 [Example 39] | -13% | ≤ 100 nM | –
CC[C@H](COc1cc(Cl)cnc1C1CCN(C(=O)[C@@H](Cc2ccc(Cl)cc2Cl)NC(=O)N2CCCC2)CC1)N1CCCC1 [Example 40] | -11% | ≤ 100 nM | –
CN1CC(Oc2cccnc2C2CCN(C(=O)[C@@H](Cc3ccc(Cl)cc3Cl)NC(=O)N3CCCC3)CC2)C1 [Example 41] | -1% | 100 to 1000 nM | –
CN1CC[C@H](Oc2cccnc2C2CCN(C(=O)[C@@H](Cc3ccc(Cl)cc3Cl)NC(=O)N3CCCC3)CC2)C1 [Example 42] | -1% | 100 to 1000 nM | –
CN1CC[C@@H](Oc2cccnc2C2CCN(C(=O)[C@@H](Cc3ccc(Cl)cc3Cl)NC(=O)N3CCCC3)CC2)C1 [Example 43] | 0% | 100 to 1000 nM | –
CN1CCC[C@H]1COc1cccnc1C1CCN(C(=O)[C@@H](Cc2ccc(Cl)cc2Cl)NC(=O)N2CCCC2)CC1 [Example 44] | -4% | 100 to 1000 nM | –
CN1CCC[C@@H]1COc1cccnc1C1CCN(C(=O)[C@@H](Cc2ccc(Cl)cc2Cl)NC(=O)N2CCCC2)CC1 [Example 45] | -27% | ≤ 100 nM | 100 to 1000 nM
COC[C@H](CN(C)C)Oc1cccnc1C1CCN(C(=O)[C@@H](Cc2ccc(Cl)cc2Cl)NC(=O)N2CCCC2)CC1 [Example 46] | -13% | > 1000 nM | –
COC[C@@H](CN(C)C)Oc1cccnc1C1CCN(C(=O)[C@@H](Cc2ccc(Cl)cc2Cl)NC(=O)N2CCCC2)CC1 [Example 47] | -36% | ≤ 100 nM | 100 to 1000 nM
CN1CCOC[C@H](Oc2cccnc2C2CCN(C(=O)[C@@H](Cc3ccc(Cl)cc3Cl)NC(=O)N3CCCC3)CC2)C1 [Example 48] | 0% | ≤ 100 nM | –
CN1CCO[C@H](COc2cccnc2C2CCN(C(=O)[C@@H](Cc3ccc(Cl)cc3Cl)NC(=O)N3CCCC3)CC2)C1 [Example 49] | -3% | 100 to 1000 nM | –
CC[C@H]1CN(C)CCN1Cc1cccnc1C1CCN(C(=O)[C@@H](Cc2ccc(Cl)cc2Cl)NC(=O)N2CCCC2)CC1 [Example 50] | 0% | ≤ 100 nM | –
CN1CC[C@H](COc2cccnc2C2CCN(C(=O)[C@@H](Cc3ccc(Cl)cc3Cl)NC(=O)N3CCCC3)CC2)C1 [Example 51] | 0% | 100 to 1000 nM | –

SMILES | Emax [1] | IC50 [2] | EC50 [1]
CN1CCOC[C@@H](Oc2cccnc2C2CCN(C(=O)[C@@H](Cc3ccc(Cl)cc3Cl)NC(=O)N3CCCC3)CC2)C1 [Example 52] | 4% | 100 to 1000 nM | –
CN1CCO[C@@H](COc2cccnc2C2CCN(C(=O)[C@@H](Cc3ccc(Cl)cc3Cl)NC(=O)N3CCCC3)CC2)C1 [Example 53] | 1% | > 1000 nM | –
CN1CC[C@@H](COc2cccnc2C2CCN(C(=O)[C@@H](Cc3ccc(Cl)cc3Cl)NC(=O)N3CCCC3)CC2)C1 [Example 54] | 10% | 100 to 1000 nM | –
CN1CCOC[C@@H]1COc1cccnc1C1CCN(C(=O)[C@@H](Cc2ccc(Cl)cc2Cl)NC(=O)N2CCCC2)CC1 [Example 55] | 2% | 100 to 1000 nM | –
CN1CCN(C)CC(Oc2cccnc2C2CCN(C(=O)[C@@H](Cc3ccc(Cl)cc3Cl)NC(=O)N3CCCC3)CC2)C1 [Example 56] | -5% | ≤ 100 nM | –
CN(C)[C@@H]1CCC[C@@H]1Oc1cccnc1C1CCN(C(=O)[C@@H](Cc2ccc(Cl)cc2Cl)NC(=O)N2CCCC2)CC1 [Example 57] | 5% | ≤ 100 nM | –
CN(C)C[C@@H](Oc1cccnc1C1CCN(C(=O)[C@@H](Cc2ccc(Cl)cc2Cl)NC(=O)N2CCCC2)CC1)C(F)(F)F [Example 58] | 4% | 100 to 1000 nM | –
CN1CCN(Cc2cc(F)cnc2C2CCN(C(=O)[C@@H](Cc3ccc(Cl)cc3Cl)NC(=O)N3CCCC3)CC2)CC1 [Example 59] | -1% | ≤ 100 nM | –
CC[C@H](COc1cc(F)cnc1C1CCN(C(=O)[C@@H](Cc2ccc(Cl)cc2Cl)NC(=O)N2CCCC2)CC1)N(C)C [Example 60] | -12% | ≤ 100 nM | –
CC[C@@H](CN(C)C)Oc1cc(F)cnc1C1CCN(C(=O)[C@@H](Cc2ccc(Cl)cc2Cl)NC(=O)N2CCCC2)CC1 [Example 61] | 1% | ≤ 100 nM | –
C[C@@H](CCN(C)C)Oc1cccnc1C1CCN(C(=O)[C@@H](Cc2ccc(Cl)cc2Cl)NC(=O)N2CCCC2)CC1 [Example 62] | -10% | ≤ 100 nM | –
CC[C@@H](CN1CCCC1)Oc1nccnc1C1CCN(C(=O)[C@@H](Cc2ccc(Cl)cc2Cl)NC(=O)N2CCCC2)CC1 [Example 63] | 0% | ≤ 100 nM | –
CC[C@H](COc1nc(C)ncc1C1CCN(C(=O)[C@@H](Cc2ccc(Cl)cc2Cl)NC(=O)N2CCCC2)CC1)N(C)C [Example 64] | 13% | ≤ 100 nM | –
Cc1ccc(C2CCN(C(=O)[C@@H](Cc3ccc(Cl)cc3F)NC(=O)N3CCCC3)CC2)c(N2CCN(C)CC2)n1 [Example 65] | 0% | ≤ 100 nM | –
Cc1ccc(C2CCN(C(=O)[C@@H](Cc3ccc(F)cc3Cl)NC(=O)N3CCCC3)CC2)c(N2CCN(C)CC2)n1 [Example 66] | 0% | 100 to 1000 nM | –
Cc1ccc(C2CCN(C(=O)[C@@H](Cc3ccc(F)cc3F)NC(=O)N3CCCC3)CC2)c(N2CCN(C)CC2)n1 [Example 67] | 33% | > 1000 nM | > 1000 nM
CC[C@H](COc1cccnc1C1CCN(C(=O)[C@@H](Cc2ccc(C)cc2C)NC(=O)N2CCCC2)CC1)N1CCCC1 [Example 70] | -2% | ≤ 100 nM | –
CC[C@H](COc1cc(Cl)cnc1C1CCN(C(=O)[C@@H](Cc2ccc(C)cc2C)NC(=O)N2CCCC2)CC1)N1CCCC1 [Example 71] | -4% | ≤ 100 nM | –
CC[C@H](COc1cc(Cl)cnc1C1CCN(C(=O)[C@@H](Cc2ccc(C)cc2C)NC(=O)N2CCCC2)CC1)N(C)C [Example 73] | -15% | ≤ 100 nM | –
CC[C@H](COc1cc(Cl)cnc1C1CCN(C(=O)[C@@H](Cc2ccc(C)cc2C)NC(=O)N2CC(O)C2)CC1)N(C)C [Example 74] | -5% | ≤ 100 nM | –
CC[C@H](COc1cc(F)cnc1C1CCN(C(=O)[C@@H](Cc2ccc(Cl)cc2Cl)NC(=O)N2CC(O)C2)CC1)N(C)C [Example 75] | -1% | ≤ 100 nM | –
CC[C@H](COc1cccnc1C1CCN(C(=O)[C@@H](Cc2ccc(Cl)cc2Cl)NC(=O)N2CCC2)CC1)N1CCCC1 [Example 76] | 0% | ≤ 100 nM | –
CC[C@H](COc1cccnc1C1CCN(C(=O)[C@@H](Cc2ccc(Cl)cc2Cl)NC(=O)N(C)C)CC1)N1CCCC1 [Example 77] | 0% | ≤ 100 nM | –
CC[C@H](COc1cccnc1C1CCN(C(=O)[C@@H](Cc2ccc(Cl)cc2Cl)NC(=O)N(CC)CC)CC1)N1CCCC1 [Example 78] | 0% | ≤ 100 nM | –
CC[C@H](COc1cccnc1C1CCN(C(=O)[C@@H](Cc2ccc(Cl)cc2Cl)NC(=O)N(C)CC)CC1)N1CCCC1 [Example 79] | 0% | ≤ 100 nM | –
CC[C@H](COc1cccnc1C1CCN(C(=O)[C@@H](Cc2ccc(Cl)cc2Cl)NC(=O)N2CC[C@@H](O)C2)CC1)N1CCCC1 [Example 80] | 0% | ≤ 100 nM | –
